Target: Phospholipid transfer protein (Homo sapiens) (UniProt P55058)
Assay: Inhibition of PLTP in plasma (unknown origin) at 150 uM using liver phospholipid, phospholipids liposome and HDL and TSE incubated for 1 hr relative to control

Phospholipid transfer protein (Homo sapiens), sequence (P55058 whole entry): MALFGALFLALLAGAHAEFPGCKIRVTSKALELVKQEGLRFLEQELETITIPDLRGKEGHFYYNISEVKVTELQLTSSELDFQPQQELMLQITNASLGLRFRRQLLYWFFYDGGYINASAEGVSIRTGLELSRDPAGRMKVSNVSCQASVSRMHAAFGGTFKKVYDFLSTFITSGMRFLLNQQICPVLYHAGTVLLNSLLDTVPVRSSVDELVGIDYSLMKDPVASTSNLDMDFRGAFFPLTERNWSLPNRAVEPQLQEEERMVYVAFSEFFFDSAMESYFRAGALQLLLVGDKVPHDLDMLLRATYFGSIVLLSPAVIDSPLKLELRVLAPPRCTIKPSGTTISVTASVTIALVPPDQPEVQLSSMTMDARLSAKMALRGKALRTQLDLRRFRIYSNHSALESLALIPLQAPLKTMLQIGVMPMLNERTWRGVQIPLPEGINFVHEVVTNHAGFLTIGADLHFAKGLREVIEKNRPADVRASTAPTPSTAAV

inhibition	Structure (SMILES)
0%	COc1ccc(-c2nc(N)sc2CC2CCCCC2)cc1
0%	O=C(Nc1nc(-c2ccc(O)cc2)c(Cc2ccccc2)s1)c1ccc(Cl)cc1
0%	COc1ccc(C(=O)Nc2nc(-c3ccc(O)cc3)c(Cc3ccccc3)s2)cc1
